Values joined by “and” are separate entries in the source; they are usually repeats but may differ in a detail not shown here. Equal values may be shown once.
Tested on: CEM cells
Assay: Non-targeted LC-MS metabolite profiling: percent [13C6]glucose labeling and relative metabolite levels
Format: cell-based, human
Settings: CEM cells, 12 h following release from G1 arrest, replicates #1-#6
Description: To further investigate the functions of dCK and ATR at the G1/S transition in CEM cells, a non-targeted liquid chromatography mass spectrometry (LC-MS) assay was used to determine the utilization of labeled [^13C6]glucose and [^13C9,^15N3]deoxycytidine, the main substrates for de novo and salvage nucleotide biosynthesis, respectively. Of the 166 metabolites identified in CEM cells treated with VE-822 and/or dCKi, 105 metabolites found in all four treatment groups contained glucose-derived ^13C atoms. […] These metabolites included intermediates such as rUTP, rCTP and rCDP in the de novo dCTP biosynthesis (Fig. 1d). […] However, several deoxyribonucleotides, including dCTP, were below the limit of detection of the non-targeted LC-MS approach, raising the concern that the sensitivity of this assay is not sufficient to measure the contribution of the salvage pathway or the ratio of de novo and salvage biosynthesis to these pools. To address this problem, a newly developed targeted MS assay was developed (Fig. 1e and Supplementary Fig. 3). In this assay, samples containing either extracted dNTPs or hydrolyzed DNA from labeled cells are separated by LC for detection by a triple quadrupole mass spectrometer using multiple reaction monitoring (LC-MS/MS-MRM). The first (Q1) and third (Q3) quadrupoles function as mass filters, while the second (Q2) quadrupole serves as a collision chamber (Fig. 1e). For instance, to profile the biosynthetic composition of deoxycytidine (dC) derived from hydrolyzed DNA or dCTP, an intact, protonated dC ion is selected in Q1, followed by fragmentation of the glycosidic bond, which releases protonated cytosine in Q2, that is filtered in Q3 and detected to generate an ion chromatogram. The peak areas for the ion chromatograms of salvage [^13C9,^15N3]dC (red trace), de novo [^13C5]dC (black trace, from [^13C6]glucose) and unlabeled dC (gray trace) (Fig. 1e) are used to determine the relative contributions of the de novo and salvage routes both to dCTP pools and to DNA-incorporated dCTP.
Cells were transferred into RPMI-1640 without glucose and supplemented with 10% dialyzed FBS (Gibco) containing the following labeled substrates: precursors for de novo [U-^13C6]glucose (Sigma-Aldrich, 389374) at 11 mM; precursors for purine salvage [U-^13C10,^15N5]dA (Cambridge Isotopes, CIL 3896), [^15N5]dA (Cambridge Isotopes, NLM-3895) and [^15N5]dG (Cambridge Isotopes, NLM-3899) at 5 µM or as indicated; and precursors for pyrimidine salvage: [U-^13C9,^15N3]dC (Silantes, 124603602) and [U-^13C10,^15N2]dT (Cambridge Isotopes, CNLM-3902) at 5 µM and [^15N2]orotate (Cambridge Isotopes, NLM-1048) at indicated concentrations. The cells were incubated for 12 h or as indicated before sample collection and processing. […]
Non-targeted LC-MS metabolic assays. 1 x 10^6 cells were washed with ice-cold 150 mM ammonium acetate twice before adding 1 mL of ice-cold 80% methanol with 10 nM norvaline as an internal standard. After vigorous vortexing, samples were centrifuged at maximum speed, the aqueous layer was transferred to a glass vial and the metabolites were dried under vacuum. Metabolites were resuspended in 50 μL 70% acetonitrile (ACN) and 5 μL of this solution used for the mass spectrometer-based analysis. The analysis was performed on a Q Exactive (Thermo Scientific) in polarity-switching mode with positive voltage 4.0 kV and negative voltage 4.0 kV. The mass spectrometer was coupled to an UltiMate 3000RSLC (Thermo Scientific) UHPLC system. Mobile phase A was 5 mM ammonium acetate (NH4AcO), pH 9.9, B was acetonitrile and the separation achieved on a Luna […] NH2 100 A column (150 × 2.0 mm, Phenomenex). The flow was 200 μL/min, and the gradient ran from 15% A to 95% A in 18 min, followed by an isocratic step for 9 min and re-equilibration for 7 min. Metabolites were detected and quantified as area under the curve based on retention time and accurate mass (≤ 3 p.p.m.) using the TraceFinder 3.1 (Thermo Scientific). Relative amounts of […]

[1] = metabolite 2-HG (C02630), listed as V
[2] = metabolite 2-HIC (C03264), listed as V
[3] = metabolite 3PG (C00197), listed as V
[4] = metabolite 5-Oxoproline (C01879), listed as V
[5] = metabolite A (C00212), listed as V
[6] = metabolite ADP (C00008), listed as V
[7] = metabolite AMP (C00020), listed as V
[8] = metabolite ATP (C00002), listed as V
[9] = metabolite Ac-carnitine (C02571), listed as V
[10] = metabolite Ac-choline (C01996), listed as V
[11] = metabolite Aconitate (C00417), listed as V
[12] = metabolite Adenine (C00034), listed as V
[13] = metabolite Ala (C00041), listed as V
[14] = metabolite Allantoin (C02350), listed as V
[15] = metabolite Arg (C00062), listed as V
[16] = metabolite Arg-Succ (C03406), listed as V

CNCc1ccc(-c2cc(-c3nc(-c4ccc(S(=O)(=O)C(C)C)cc4)cnc3N)on2)cc1 [VE-822]
Relative level, Sarc (C00213) (listed as V): 1.3 (2×) and 1.2 and 0.569 and 0.751 and 0.6
Relative level, Ser (C00065) (listed as V): 1.4 and 1.5 (2×) and 0.9 and 1.0 and 0.949
Relative level, Shikimate (C00493) (listed as V): 1.3 and 1.2 and 1.5 and 1.1 and 0.8 (2×)
Relative level, Succ (C00042) (listed as V): 1.6 (2×) and 1.3 and 1.1 and 0.5 (2×)
Relative level, T (C00214) (listed as V): 1.1 (2×) and 1.3 (2×) and 1.2 and 1.4
Relative level, Thr (C00188) (listed as V): 1.5 and 1.6 (2×) and 1.0 and 0.949 and 0.9
Relative level, Thymine (C00178) (listed as V): 1.4 and 1.5 (2×) and 1.0 (2×) and 1.2
Relative level, Trigonelline (C01004) (listed as V): 1.3 (3×) and 1.5 and 0.8 and 1.2
Relative level, Trp (C00078) (listed as V): 1.4 and 1.5 (2×) and 0.9 (2×) and 1.0
Relative level, Tyr (C00082) (listed as V): 1.4 and 1.6 (2×) and 0.9 (3×)
Relative level, Tyramine (C00483) (listed as V): 1.0 and 1.1 and 1.7 and 0.8 (2×) and 0.7
Relative level, UDP (C00015) (listed as V): 2.4 and 1.3 and 1.6 and 1.1 and 0.7 and 0.6
Relative level, UDP-Glc (C00029) (listed as V): 2.4 and 2.0 and 2.8 and 1.5 and 1.4 and 1.7
Relative level, UDP-GlcNAc (C00043) (listed as V): 1.2 and 1.1 and 1.4 and 0.747 and 0.8 and 0.9
Relative level, UMP (C00105) (listed as V): 2.6 and 2.3 and 2.5 and 2.0 and 0.7 (2×)
Relative level, UTP (C00075) (listed as V): 1.2 and 0.571 and 0.7 and 0.75 and 0.4 and 0.355
Relative level, Uracil (C00106) (listed as V): 1.2 (2×) and 2.0 and 2.6 and 1.1 and 0.8
Relative level, Uric Acid (C00366) (listed as V): 0.5 and 0.9 and 1.4 and 0.242 and 0.282 and 0.253
Relative level, Urocanate (C00785) (listed as V): 0.542 and 1.3 and 1.4 and 0.452 and 0.8 and 0.7
Relative level, Val (C00183) (listed as V): 1.1 and 1.3 (2×) and 1.5 and 0.9 (2×)
Relative level, Vit-C (C00072) (listed as V): 5.1 and 1.4 (2×) and 2.3 and 0.5 and 0.2
Relative level, Xanthine (C00385) (listed as V): 0.9 and 1.7 and 2.5 and 2.4 and 0.843 and 0.6
Glucose labeling, 2-HG [1]: 9.00% and 8.24% and 8.56% and 6.59% and 3.26% and 5.24%
Relative level, 2-HG [1]: 1.5 and 1.0 and 1.3 and 0.9 and 0.545 and 0.5
Glucose labeling, 2-HIC [2]: -2.22e-14% and 0.00% (5×)
Relative level, 2-HIC [2]: 1.2 (2×) and 1.5 (2×) and 0.8 and 0.9
Glucose labeling, 2-KIC (metabolite 2-KIC (C00233)): 0.00%
Relative level, 2-KIC (metabolite 2-KIC (C00233), listed as V): 1.1 and 1.2 and 1.3 and 0.9 (2×) and 0.8
Glucose labeling, 2-Oxoadipate (metabolite 2-Oxoadipate (C00322)): 0.00%
Relative level, 2-Oxoadipate (metabolite 2-Oxoadipate (C00322), listed as V): 1.3 and 1.0 (2×) and 1.4 and 1.1 and 0.759
Glucose labeling, 2-Oxosuccinamate (metabolite 2-Oxosuccinamate (C02362)): 0.0737%
Relative level, 2-Oxosuccinamate (metabolite 2-Oxosuccinamate (C02362), listed as V): 0.8 and 0.9 and 1.6 and 2.4 and 0.5 and 0.438
Glucose labeling, 3PG [3]: 98.64% and 92.25% and 93.08% and 80.82% and 100.00% (2×)
Relative level, 3PG [3]: 1.3 and 0.262 and 0.5 (2×) and 0.0899 and 0.0949
Glucose labeling, 4-OH-PheLac (metabolite 4-OH-PheLac (C03672)): 0.00%
Relative level, 4-OH-PheLac (metabolite 4-OH-PheLac (C03672), listed as V): 1.0 and 1.1 and 1.3 and 0.7 and 0.5 and 0.6
Glucose labeling, 5-Oxoproline [4]: 1.06% and 0.96% and 1.16% and 0.74% (2×) and 0.98%
Relative level, 5-Oxoproline [4]: 1.0 (2×) and 1.1 (2×) and 0.9 and 0.7
Glucose labeling, 5M-adenosine (metabolite 5M-adenosine (C00170)): 0.00%
Relative level, 5M-adenosine (metabolite 5M-adenosine (C00170), listed as V): 1.7 and 1.9 (2×) and 1.3 (2×) and 1.4
Glucose labeling, A [5]: 0.0217% and 0.39% and 0.36% and 0.0233% and 0.0286% and 0.01%
Relative level, A [5]: 1.7 and 1.1 and 1.2 and 4.1 and 1.0 and 1.8
Glucose labeling, ADP [6]: 63.63% and 60.29% and 63.02% and 59.23% and 57.33% and 59.16%
Relative level, ADP [6]: 2.2 and 1.0 and 1.4 and 1.2 and 0.6 (2×)
Glucose labeling, AMP [7]: 58.98% and 57.42% and 62.07% and 26.04% and 58.67% and 50.37%
Relative level, AMP [7]: 2.8 and 1.7 and 2.2 and 3.0 and 0.8 and 0.7
Glucose labeling, ATP [8]: 65.50% and 64.37% and 65.03% and 64.82% and 61.07% and 61.72%
Relative level, ATP [8]: 1.5 and 0.6 and 0.849 and 0.9 and 0.466 and 0.5
Glucose labeling, Ac-carnitine [9]: 29.64% and 30.01% and 28.25% and 21.49% and 24.07% and 21.63%
Relative level, Ac-carnitine [9]: 1.1 (2×) and 1.2 and 0.7 (2×) and 0.8
Glucose labeling, Ac-choline [10]: 0.00429% and 0.00459% and 0.00523% and 0.00396% and 0.00509% and 0.00552%
Relative level, Ac-choline [10]: 0.746 and 0.8 (3×) and 0.76 and 0.9
Glucose labeling, Aconitate [11]: 33.62% and 26.91% and 31.71% and 21.17% and 28.64% and 25.94%
Relative level, Aconitate [11]: 1.0 and 0.433 and 0.659 and 0.53 and 0.3 and 0.355
Glucose labeling, Adenine [12]: 1.88e-5% and 1.21e-5% and 0.00361% and 1.25e-5% and 1.11e-5% and 0.0013%
Relative level, Adenine [12]: 1.8 and 3.0 and 3.1 and 41.9 and 2.1 and 1.5
Glucose labeling, Ala [13]: 57.46% and 55.60% and 53.77% and 47.90% and 47.23% and 52.00%
Relative level, Ala [13]: 1.3 and 1.5 (2×) and 0.9 (2×) and 1.0
Glucose labeling, Allantoin [14]: 0.00% (5×) and -2.22e-14%
Relative level, Allantoin [14]: 1.3 (2×) and 1.7 and 1.1 and 0.7 and 1.0
Glucose labeling, Arg [15]: 0.00452% and 0.00428% and 0.00453% and 0.00405% and 0.00437% and 0.00476%
Relative level, Arg [15]: 1.5 and 1.7 and 1.6 and 0.9 (2×) and 1.1
Glucose labeling, Arg-Succ [16]: 10.44% and 8.30% and 5.56% and 3.28% and 1.95% and 6.31%
Relative level, Arg-Succ [16]: 1.4 and 1.3 and 1.5 and 0.9 and 0.6 and 0.5
Glucose labeling, Asn (metabolite Asn (C00152), listed as V): 5.14e-5% and 2.85e-6% and 2.32e-6% and 0.000702% and 2.84e-6% and 2.39e-6%
